Measurements from patent US11214803B2, “Modulators of YAP1 expression” (Ionis Pharmaceuticals, Inc., priority 2019, dated 2022).
pIC50: −log10 of the molar value. Strand notation (5' to 3'): a small letter for the sugar, then the base; units joined by * are phosphorothioate-linked, units joined directly phosphodiester-linked; [ ] holds rarer units or linkages, { } end groups; capitals alone tell only the bases. k = constrained ethyl (cEt); [5mC] = 5-methylcytosine; d = 2'-deoxy (DNA)

Test system: Yap1 mRNA
Assay: Dose-dependent inhibition of human Yap1 in A-431 cells (Example 6, 5,000 cells per well, RTS4814)
Assay type: cell-based
Conditions: for % UTC 148 nM / % UTC 444 nM / % UTC 1333 nM / % UTC 4000 nM: approximately 48 hours; for Yap1 mRNA, % UTC: 48 hours
Experimental: Modified oligonucleotides described in the studies above were tested at various doses in A-431 cells. Cultured A-431 cells at a density of 5,000 cells per well were treated using free uptake with modified oligonucleotides diluted to concentrations described in the tables below. After approximately 48 hours, Yap1 mRNA levels were measured as previously described using the Human Yap1 primer-probe set RTS4814. Yap1 mRNA levels were normalized to total RNA content, as measured by RIBOGREEN®. Results are presented in the tables below as percent control of the amount of Yap1 mRNA relative to untreated control cells (% UTC). IC50s were calculated using a linear regression on a log/linear plot of the data in excel.

[1] = Table 53, A-431 cells, Yap1 mRNA, linear regression on a log/linear plot
[2] = Table 53, A-431 cells, free uptake, 148 nM, RTS4814
[3] = Table 53, A-431 cells, free uptake, 444 nM, RTS4814
[4] = Table 53, A-431 cells, free uptake, 1333 nM, RTS4814
[5] = Table 53, A-431 cells, free uptake, 4000 nM, RTS4814
[6] = Table 54, A-431 cells, Yap1 mRNA, linear regression on a log/linear plot
[7] = Table 54, A-431 cells, free uptake, 148 nM, RTS4814
[8] = Table 54, A-431 cells, free uptake, 444 nM, RTS4814
[9] = Table 54, A-431 cells, free uptake, 1333 nM, RTS4814
[10] = Table 54, A-431 cells, free uptake, 4000 nM, RTS4814
[11] = Table 55, 148 nM, free uptake, A-431 cells 5,000 cells per well, RTS4814
[12] = Table 55, 444 nM, free uptake, A-431 cells 5,000 cells per well, RTS4814
[13] = Table 55, 1333 nM, free uptake, A-431 cells 5,000 cells per well, RTS4814
[14] = Table 55, 4000 nM, free uptake, A-431 cells 5,000 cells per well, RTS4814
[15] = Table 55, A-431 cells 5,000 cells per well, free uptake, RTS4814

Row | Substance | pIC50 [1] | % UTC 148 nM [2] [% UTC] | % UTC 444 nM [3] [% UTC] | % UTC 1333 nM [4] [% UTC] | % UTC 4000 nM [5] [% UTC] | pIC50 [6] | % UTC 148 nM [7] [% UTC] | % UTC 444 nM [8] [% UTC] | % UTC 1333 nM [9] [% UTC] | % UTC 4000 nM [10] [% UTC] | Yap1 mRNA, % UTC [11] [% UTC] | Yap1 mRNA, % UTC [12] [% UTC] | Yap1 mRNA, % UTC [13] [% UTC] | Yap1 mRNA, % UTC [14] [% UTC] | pIC50 [15]
1 | 715486 (kT*kA*k[5mC]*dT*dT*d[5mC]*dA*dT*dA*dG*d[5mC]*dT*dT*kA*kT*kA; antisense) [compound 715486] | < 5.40 | 93 | 89 | 81 | 56 | – | – | – | – | – | – | – | – | – | –
2 | 716496 (antisense kG*kA*kA*dG*dA*dG*dA*dT*dT*dT*dT*dA*dT*kG*k[5mC]*k[5mC]) [compound 716496] | – | – | – | – | – | < 5.40 | 74 | 87 | 64 | 49 | – | – | – | – | –
3 | 716376 (k[5mC]*kG*kA*dA*dG*dA*dT*dG*d[5mC]*dT*dG*dA*dG*k[5mC]*kT*kG; antisense) [compound 716376] | – | – | – | – | – | < 5.40 | 103 | 94 | 79 | 50 | – | – | – | – | –
4 | 715500 (kA*kA*kG*d[5mC]*d[5mC]*dT*dT*dA*dG*dA*dG*dT*d[5mC]*kA*kA*kT; antisense) [compound 715500] | 5.44 | 97 | 72 | 67 | 48 | – | – | – | – | – | – | – | – | – | –
5 | 716484 (antisense k[5mC]*kA*k[5mC]*dT*dT*dT*dT*d[5mC]*d[5mC]*dA*dG*d[5mC]*dT*kA*kA*k[5mC]) [compound 716484] | – | – | – | – | – | < 5.40 | 88 | 78 | 80 | 55 | – | – | – | – | –
6 | 716387 (antisense kT*kA*kT*dG*dG*dT*dT*dT*dA*dT*dA*dT*dA*kG*kT*kA) [compound 716387] | – | – | – | – | – | – | – | – | – | – | 94 | 94 | 80 | 67 | < 5.40
7 | 715577 (kG*k[5mC]*kA*dT*dT*d[5mC]*dA*d[5mC]*dA*dG*dA*dG*dT*kT*kA*kA; antisense) [compound 715577] | < 5.40 | 87 | 76 | 73 | 45 | – | – | – | – | – | – | – | – | – | –
8 | 716489 (antisense kA*kG*kT*dT*dA*dA*dT*dT*d[5mC]*dA*dT*dG*d[5mC]*kT*k[5mC]*kG) [compound 716489] | – | – | – | – | – | – | – | – | – | – | 84 | 83 | 69 | 61 | < 5.40
9 | 715423 (k[5mC]*k[5mC]*kA*dT*dG*dT*dT*dG*dT*dT*dG*dT*d[5mC]*kT*kG*kA; antisense) [compound 715423] | < 5.40 | 83 | 91 | 80 | 57 | – | – | – | – | – | – | – | – | – | –
10 | 715471 (kT*kA*kT*d[5mC]*dT*dA*dG*d[5mC]*dT*dT*dG*dG*dT*kG*kG*k[5mC]; antisense) [compound 715471] | – | – | – | – | – | < 5.40 | 82 | 103 | 105 | 79 | – | – | – | – | –
11 | 715414 (kA*kA*k[5mC]*dA*dT*dG*d[5mC]*dT*dG*dT*dG*dG*dA*kG*kT*k[5mC]; antisense) [compound 715414] | – | – | – | – | – | < 5.40 | 91 | 91 | 102 | 67 | – | – | – | – | –
12 | 716554 (antisense kA*kT*kG*d[5mC]*dT*dT*dG*d[5mC]*dG*dA*dG*dG*dA*kT*kA*kA) [compound 716554] | – | – | – | – | – | – | – | – | – | – | 87 | 90 | 76 | 50 | < 5.40
13 | 715555 (kG*kT*kT*dA*dT*dT*d[5mC]*dA*dG*d[5mC]*dA*dG*d[5mC]*kT*kT*kA; antisense) [compound 715555] | 5.60 | 93 | 71 | 63 | 42 | – | – | – | – | – | – | – | – | – | –
14 | 715501 (kA*kA*kA*dA*dG*d[5mC]*d[5mC]*dT*dT*dA*dG*dA*dG*kT*k[5mC]*kA; antisense) [compound 715501] | < 5.40 | 82 | 82 | 68 | 56 | – | – | – | – | – | – | – | – | – | –
15 | 716524 (antisense kA*k[5mC]*kT*dG*dA*dG*dG*dT*dA*dT*dA*dA*d[5mC]*kT*kG*kG) [compound 716524] | – | – | – | – | – | – | – | – | – | – | 103 | 92 | 96 | 62 | < 5.40
16 | 716537 (antisense kA*kT*kG*dT*dG*d[5mC]*dT*d[5mC]*d[5mC]*dA*dT*d[5mC]*dA*kA*k[5mC]*k[5mC]) [compound 716537] | – | – | – | – | – | – | – | – | – | – | 120 | 96 | 88 | 63 | < 5.40
17 | 715490 (k[5mC]*k[5mC]*kA*dA*d[5mC]*dT*dA*dT*dT*dA*d[5mC]*dT*dT*k[5mC]*kA*kT; antisense) [compound 715490] | 5.39 | 98 | 89 | 76 | 43 | – | – | – | – | – | – | – | – | – | –
18 | 715435 (kG*kG*kT*d[5mC]*dT*dT*dG*dT*dT*d[5mC]*dT*dT*dA*kT*kG*kG; antisense) [compound 715435] | – | – | – | – | – | 5.47 | 80 | 67 | 61 | 48 | – | – | – | – | –
19 | 715508 (k[5mC]*kT*kG*dT*dG*d[5mC]*dT*dG*dG*dG*dA*dT*dT*kG*kA*kT; antisense) [compound 715508] | 5.46 | 78 | 70 | 67 | 43 | – | – | – | – | – | – | – | – | – | –
20 | 715433 (kT*kG*kT*dT*d[5mC]*dT*dT*dA*dT*dG*dG*dT*dT*kT*kA*kT; antisense) [compound 715433] | 5.60 | 87 | 72 | 65 | 40 | – | – | – | – | – | – | – | – | – | –
21 | 716445 (antisense kG*kT*kA*dT*dG*dT*dG*dG*d[5mC]*dA*dA*dT*dA*kA*kT*kT) [compound 716445] | – | – | – | – | – | 5.59 | 89 | 82 | 56 | 44 | – | – | – | – | –
22 | 716493 (antisense kA*k[5mC]*kA*dT*dT*dG*dA*dA*dA*dG*dA*d[5mC]*d[5mC]*k[5mC]*kT*kT) [compound 716493] | – | – | – | – | – | < 5.40 | 95 | 97 | 86 | 72 | – | – | – | – | –
23 | 716419 (antisense kT*kT*kT*d[5mC]*d[5mC]*dG*dG*dT*dG*d[5mC]*dA*dT*dG*kT*kG*kT) [compound 716419] | – | – | – | – | – | – | – | – | – | – | 89 | 84 | 49 | 47 | 5.60
24 | 715478 (kA*k[5mC]*k[5mC]*dA*dT*dT*dA*dT*dT*dA*d[5mC]*dT*d[5mC]*k[5mC]*kT*kG; antisense) [compound 715478] | 6.40 | 70 | 47 | 29 | 16 | 6.22 | 72 | 59 | 31 | 18 | 76 | 56 | 32 | 18 | 6.22
25 | 715510 (kA*kT*kT*dT*dG*d[5mC]*dT*dG*dT*dG*d[5mC]*dT*dG*kG*kG*kA; antisense) [compound 715510] | 5.62 | 88 | 67 | 59 | 45 | – | – | – | – | – | – | – | – | – | –
26 | 716501 (antisense kG*k[5mC]*kA*d[5mC]*dT*dG*dA*dA*dA*dG*dT*dA*d[5mC]*kT*kT*kA) [compound 716501] | – | – | – | – | – | – | – | – | – | – | 91 | 69 | 66 | 55 | < 5.40
27 | 716479 (antisense kG*kA*kA*d[5mC]*dA*dA*dT*d[5mC]*dT*dT*dG*dA*dA*kG*kG*k[5mC]) [compound 716479] | – | – | – | – | – | – | – | – | – | – | 88 | 78 | 55 | 57 | < 5.40
